Reference: article PMC4941645, “Oxidative Stress Induced by Pt(IV) Pro-drugs Based on the Cisplatin Scaffold and Indole Carboxylic Acids in Axial Position” (Scientific Reports, 2016)

How the values were obtained:
[1] = tested on: A375 cells; test: Mitochondrial membrane potential; format: cell-based, human; conditions: A375, IC50 concentrations, 24 and 48 h
Description: A persistent increase in the rate of ROS production is responsible for the accumulation of ROS. In turn, an increase in cellular ROS leads to the loss of the mitochondrial membrane potential (ΔΨm, MMP), thus possibly leading to the induction of apoptosis. The effect induced by the Pt(IV) complexes on the MMP was assessed by treating A375 cells with IC50 concentrations of 1P and 1A and evaluating the energization of treated melanoma cells in terms of the retention of the cationic fluorescent probe tetramethyl rhodamine methyl ester (TMRM).
Figure 9 Effects of 1P and 1A on the cellular mitochondrial membrane potential. […] The percentage of cells with a hypopolarized mitochondrial membrane potential was determined fluorimetrically.
The ΔΨm was assayed using the Mito-ID® Membrane Potential Kit according to the manufacturer’s instructions (Enzo Life Sciences, Farmingdale, NY). Briefly, A375 cells (8 × 10^3 per well) were seeded in 96-well plates, after 24 h, cells were washed with PBS and loaded with Mito-ID Detection Reagent for 30 min at 37 °C in the dark. Afterwards, cells were washed with PBS and incubated with increasing concentrations of the tested complexes. The fluorescence was estimated using a plate reader (Fluoroskan Ascent FL, Labsystem, Finland) at 490 (excitation) and 590 nm (emission).

[2] = Log P octanol/water, shake flask method with ICP-MS; format: physicochemical; conditions: n-octanol / 0.9% NaCl water, Pt by ICP-MS
Description: Partition coefficients (logP values) for octanol/water partition were determined in order to examine whether a correlation exists between lipophilicity and accumulation into cells. The log P values obtained (Table 3) give the trend in lipophilicity as mono indole acid complex < succinate complex < acetate complex < bis indole acid complex < benzoate complex for both the IAA and the IPA series.
The logP values of the Pt(IV) compounds were determined using the shake flask method. The respective Pt(IV) complex was dissolved in 0.9% NaCl (w/v) ultrapure water (presaturated with n-octanol). The solutions were sonicated and filtered to remove undissolved Pt(IV) compounds. The initial Pt concentrations were determined by ICP-MS. Subsequently, the Pt(IV) solutions were added to an equal volume of n-octanol (presaturated with 0.9% NaCl (w/v) ultrapure water). The heterogeneous mixtures were shaken vigorously for 30 min before centrifuging at 4000 rpm for 30 min to achieve phase separation. The final Pt concentration in the aqueous phase was determined again by ICP-MS. The logarithm of the ratio of Pt concentrations in the organic and aqueous phases was calculated to determine the logP values. All experiments were done in duplicate.

[3] = tested on: A375 cells; test: Hoechst 33258 staining, apoptosis morphology; format: cell-based, human; conditions: A375, IC50 doses, 48 h
Description: A375 cells were seeded into 8-well tissue-culture slides (BD Falcon, Bedford, MA, USA) at 5 × 10^4 cells/well (0.8 cm^2).

[4] = tested on: MCF-7 breast carcinoma cells; test: MTT cytotoxicity test, MCF-7; format: cell-based, human; conditions: MCF-7, 72 h, ± S.D.
Description: The cytotoxic activity of the complexes and of the uncoordinated ligands was evaluated by the MTT test on a panel of human tumor cell lines containing examples of pancreatic (BxPC3), colorectal (HCT-15), breast (MCF-7), cervical (A431), and lung (A549) cancers as well as of melanoma (A375). For comparison purposes, the cytotoxicity of cisplatin was evaluated under the same experimental conditions.
Cisplatin was dissolved in 0.9% NaCl solution.
Human breast (MCF-7), colon (HCT-15), lung (A549) and pancreatic (BxPC3) carcinoma cell lines together with melanoma (A375) cells were obtained from American Type Culture Collection (ATCC, Rockville, MD). The human ovarian cancer cell line 2008 and its cisplatin resistant variant, C13*, were kindly provided by Prof. G. Marverti (Department of Biomedical Science of Modena University, Italy). Human cervical carcinoma (A431) cells were kindly provided by Prof. F. Zunino (Division of Experimental Oncology B, Istituto Nazionale dei Tumori, Milan, Italy). Cell lines were maintained in the logarithmic phase at 37 °C in a 5% carbon dioxide atmosphere using the following culture media containing 10% fetal calf serum (Euroclone, Milan, Italy), antibiotics (50 units/mL penicillin and 50 μg/mL streptomycin) and 2 mM L-glutamine: (i) RPMI-1640 medium (Euroclone) for 2008, C13*, MCF-7, HCT-15, A431 and BxPC3 cells, (ii) F-12 HAM’S (Sigma Chemical Co.) for A549 cells, iii) DMEM (Sigma Chemical Co.) for A375 cells.
The growth inhibitory effect toward tumor cells was evaluated by means of the MTT assay. Briefly, (3–8) × 10^3 cells/well, dependent upon the growth characteristics of the cell line, were seeded in 96-well microplates in growth medium (100 μL). After 24 h, the medium was removed and replaced with fresh medium containing the compound to be studied at the appropriate concentration. Triplicate cultures were established for each treatment. After 24, 48, or 72 h, each well was treated with 10 μL of a 5 mg/mL MTT saline solution and, after 5 h of incubation, 100 μL of a sodium dodecylsulfate (SDS) solution in 0.01 M HCl was added. After an overnight incubation, cell growth inhibition was detected by measuring the absorbance of each well at 570 nm using a Bio-Rad 680 microplate reader. The mean absorbance for each drug dose was expressed as a percentage of the control, untreated well absorbance and plotted vs drug concentration. The IC50 values, the drug concentrations that decrease the mean absorbance at 570 nm to 50% of that of untreated control wells, were calculated from the dose–response curves with the four-parameter logistic model (4PL). The final value is the mean ± S.D. of at least three independent experiments performed in triplicate.

| Compound | cells with decreased mitochondrial membrane potential (in words) [1] | Log P (octanol/water) [2] | apoptotic morphology (in words) [3] | IC50 [4] |
| --- | --- | --- | --- | --- |
| [NH2][Pt]([NH2])([OH])([Cl])([Cl])[O]C(=O)Cc1c[nH]c2ccccc12 [Complex 1A] | significant and time-dependent increase | −0.220 ± 0.04 | morphological features typical of cells undergoing apoptosis | 3.62 ± 0.94 µM |
| [NH2][Pt]([NH2])([OH])([Cl])([Cl])[O]C(=O)CCc1c[nH]c2ccccc12 [Complex 1P, cis,cis,trans-[Pt(NH3)2Cl2(IPA)(OH)]] | significant and time-dependent increase | −0.110 ± 0.05 | morphological features typical of cells undergoing apoptosis | 3.78 ± 0.16 µM |
| [NH2][Pt]([NH2])([Cl])([Cl])([O]C(=O)Cc1c[nH]c2ccccc12)[O]C(=O)c1ccccc1 [Complex 3A] |  | −0.037 ± 0.04 |  | 3.76 ± 0.76 µM |
| [NH2][Pt]([NH2])([Cl])([Cl])([O]C(=O)CCC(=O)O)[O]C(=O)Cc1c[nH]c2ccccc12 [Complex 4A] |  | −0.190 ± 0.06 |  | > 50 µM |
| CC(=O)[O][Pt]([NH2])([NH2])([Cl])([Cl])[O]C(=O)Cc1c[nH]c2ccccc12 [Complex 5A] |  | −0.130 ± 0.05 |  | 43.26 ± 0.22 µM |
